From patent US10919887B2, “Salts and solid forms of a monobactam antibiotic” (Novartis AG, priority 2015, dated 2021)
≈ marks a conversion by molar mass, not a printed value.

How the values were obtained:
[1] = Stability of solid forms as relative humidity is varied; assay type: physicochemical
Experimental: This material is referred to herein as Form 5.
Water (20 mL) and THF (40 mL) were mixed in a flask, and Compound X (10 g, ca. 91% pure by HPLC) was added with stirring at 25° C. to provide a clear yellow solution. A 20 mg sample of Form 5 (see above) was added as a seed, and the mixture was stirred for 50 mins. THF (140 mL) was then added slowly, over 1 hr and the mixture was stirred for 2 hr more. The suspension was filtered, and the wet cake was washed with cold (<5° C.) water, then dried at 20-25° C. for 11 hrs at 100 mbar pressure, providing 6.6 g of Form 5 trihydrate that was 97.8% pure by HPLC. It appears stable when stored at 25-50% relative humidity, preferably 30-40% RH; at lower or higher relative humidity, it may evolve to different hydrated states as described herein.
Compound X of Form 1 (anhydrate) was exposed to 43% relative humidity for one day or more. The crystalline product appears to be a sesquihydrate (Compound X-1.5 H2O) based on water content determination. Note that Form 5, the trihydrate, under similar conditions would be stable, yet when starting with the anhydrate, it appears to equilibrate as a sequihdyrate under these conditions and remains in that form for at least 14 days when kept at the same relative humidity. This crystalline form produces the XRPD spectrum shown in FIG. 11, and is referred to herein as Form 10. The table below summarizes the main peaks in the XRPD of this sample.
Compound X of Form 5, the trihydrate, was exposed to relative humidity of 22% for about 3 days to provide a crystalline solid characterized as a dihydrate (Compound X-2H2O) based on water content analysis. […] The dihydrate, referred to herein as Form 11, produced the XRPD spectrum shown in FIG. 12: the main peaks in that XRPD spectrum are listed in the following table.
Compound X of Form 5 was exposed to air with a relative humidity of 65% for about 3 days, providing a crystalline material characterized as a tetra-hydrate based on water content analysis. […] The tetrahydrate, referred to herein as Form 12, produced the XRPD spectrum shown in FIG. 13: the main peaks in that XRPD spectrum are listed in the following table.
Note that at 92% relative humidity, Compound X appears to be a mixture of a crystal form characterized as hexahydrate mixed with the tetrahydrate of Form 12. By comparison, the anhydrate (Form 1) preferentially converts to a sesquihydrate as the relative humidity is increased to 43%, and evolves to trihydrate and tetrahydrate at higher relative humidities.

[2] = tested on: E. coli NB27273-CDY0026 (parent); assay: MIC by broth microdilution, isogenic E. coli parent strain; assay type: cell-based; settings: Escherichia coli, read-out: Strain 1 MIC
Experimental: Bacterial isolates were cultivated from −70° C. frozen stocks by two consecutive overnight passages at 35° C. in ambient air on 5% blood agar (Remel, Lenexa, Kans.). Quality control and P. aeruginosa ATCC 27853) is from the American Type Culture Collection (ATCC; Rockville, Md.) and PAO1 was received from Dr. K. Poole.
Strain NB27273 (BW25113 pspB::Km^r) was obtained from the Keio transposon insertion collection. The strain has the pspB gene replaced by a kanamycin resistance marker (BW25113 pspB::Km^r). This strain was cured of the transposon in pspB via FLP recombinase using published methodology. The resulting strain, BW25113 pspB, was used as a host for multicopy vectors expressing key β-lactamases. Multicopy plasmids directing constitutive expression of β-lactamases were established as follows: Synthetic, codon optimized genes encoding E. coli KPC2 and SHV12-lactamases were made by DNA2.0 (Palo Alto, Calif.). Each of the synthetic fragments were designed to contain NotI and NcoI restriction sites at their termini, allowing ligation into a NotI/NcoI digested pET28a(+) derivative for protein expression. […]

[3] = Stability of Compound X and its salts in aqueous solution; assay type: physicochemical; settings: salts made with 1.0 or 2.0 equiv. base, lyophilized; for aqueous media for intravenous use
Text: It is important for a drug product to be stable enough to avoid significant degradation when it is shipped and stored under commercially practical conditions. The inventors have discovered that Compound X in solution is preferably used and stored at a pH between 4 and 6, preferably between 4.0 and 5.5, for maximum stability in the presence of moisture. Optimal solution stability is achieved at a pH of about 4.0 to 5.5 Accordingly, the invention provides pharmaceutical compositions comprising Compound X at a pH between 4 and 6, preferably between 4.0 and 5.5, and more preferably at a pH of about 5±0.5 or at pH of 5±0.2. Suitable compositions comprise Compound X in an aqueous solution, such as a dextrose or saline solution, which may be isotonic, and may contain other substances such as stabilizers, antioxidants, buffers or pH modifiers, nutrients, and the like. In some of these embodiments, the desired pH is achieved by combining Compound X and a pH modifier suitable to achieve the desired pH in an aqueous solution. Suitable pH modifiers include but are not limited to sodium hydroxide, sodium carbonate, sodium bicarbonate, potassium carbonate, potassium hydroxide, amines such as TRIS (tris(hydroxymethyl)aminomethane), and amino acids such as arginine, lysine, histidine, and the like. Known monobactams, including aztreonam, have been formulated with arginine. […]

[4] = Stability testing of solid salts at 25° C. and 40° C., purity by HPLC; assay type: physicochemical; settings: solid salt
Experimental: Salts of Compound X were prepared by adding a base (1.0 or 2.0 equiv.) to Compound X in water, and lyophilizing the solution. The solids thus obtained appear to be amorphous by XRPD. In this manner, formation of salts of Compound X were attempted with sodium hydroxide, (L)-lysine, (L)-arginine, calcium hydroxide, meglumine, and magnesium hydroxide.
Samples of the disodium salt and the di-(L)-arginine salt as solids were subjected to stability testing at 25° C. and 40° C. The sample of sodium salt was 97.2% pure by HPLC initially, and after 6 weeks at 25° C., it was still 96.2% pure. The same material held at 40° C. was 94.8% pure after 3 weeks, and 93.6% pure after 6 weeks. Significant impurities that appear or increase during the study appear at relative retention times (RRT) 0.34 and 1.11 (with Compound X defined as RRT=1).
The arginine salt was 97.3% pure by HPLC initially, and was 96.3% pure after 6 weeks at 25° C. At 40° C., its purity dropped to 95.1% after 3 weeks and 94.2% after 6 weeks. Significant impurities that appear or increase during this study appear at relative retention times (RRT) 1.09, 1.11 and 1.13 (with Compound X defined as RRT=1). The HPLC traces for the samples from these stability studies after 6 weeks at 25° C. and 40° C. respectively are shown in FIGS. 10 and 11. The lower trace in each Figure is a sample used to measure the limit of quantitation (LOQ); the next trace above that represents the sample of Compound X used for salt formation; the next trace above that one is for the arginine salt after 6 weeks; and the next (top) trace is for the sodium salt after 6 weeks.
HPLC Conditions for the stability studies (FIGS. 10 and 11):
Agilent 1290 system with UV detector at 260 nm
Acquity HSS T3 column, 100 mm×2.1 mm ID; 1.8 μm particle size (supplied by Waters)
• A: 0.05% TFA in water • B: 0.05% TFA in methanol Flow rate: 0.45 mL/min Gradient (A/B ratio): 97:3 for 8 minutes; 75:25 for 3 minutes; 0:100 for 1 minute

Nc1nc(/C(=N/OC2(C(=O)O)CC2)C(=O)N[C@@H]2C(=O)N(S(=O)(=O)O)[C@@H]2CN2CCOC2=O)cs1 [Form 5]
form change at high relative humidity ([1]; RH above 80%): converts to Form 4 within a day
relative humidity at which the form appears stable when stored ([1]; storage of Form 5 trihydrate): 25-50%

C[C@H]1[C@H](NC(=O)/C(=N\OC(C)(C)C(=O)O)c2csc(N)n2)C(=O)N1S(=O)(=O)O [compound 1]
MIC [2]: 0.125 µg/mL (≈ 0.287 µM)

Nc1nc(/C(=N/OC2(C(=O)O)CC2)C(=O)N[C@@H]2C(=O)N(S(=O)(=O)O)[C@@H]2CN2CCOC2=O)cs1 [Form 10]
time the form remains unchanged ([1]; kept at 43% relative humidity): at least 14 days

Nc1nc(/C(=N/OC2(C(=O)O)CC2)C(=O)N[C@@H]2C(=O)N(S(=O)(=O)O)[C@@H]2CN2CCOC2=O)cs1 [Form 12]
form change when relative humidity is reduced ([1]; relative humidity reduced to about 40%): readily reverts to the trihydrate (Form 5)

N=C(N)NCCC[C@H](N)C(=O)O.N=C(N)NCCC[C@H](N)C(=O)O.Nc1nc(/C(=N/OC2(C(=O)O)CC2)C(=O)N[C@@H]2C(=O)N(S(=O)(=O)O)[C@@H]2CN2CCOC2=O)cs1 [arginine salt]
stability of salts [3]: particularly stable
purity by HPLC ([4]; after 3 weeks at 40° C.): 95.1%
purity by HPLC ([4]; after 6 weeks at 25° C.): 96.3%
purity by HPLC ([4]; after 6 weeks at 40° C.): 94.2%
purity by HPLC ([4]; initially): 97.3%
